Laboratory results from the NIST ThermoML archive (doi:10.1021/je200327s).

Assay: xn = mol fraction of the nth substance listed
Details: 101 kPa, Liquid, Vibrating tube method

c1ccc2c(c1)sc1ccccc12 [dibenzothiophene] + CCCCCCCC
mass density [kg/m3]
Details | x1 = 0.0026 | x1 = 0.0049 | x1 = 0.0063 | x1 = 0.0127 | x1 = 0.0187 | x1 = 0.0252
298.2 K | 699.866 | 701.048 | 701.696 | 704.954 | 707.967 | 711.182
313.2 K | 687.657 | 688.882 | 689.525 | 692.813 | 695.851 | 699.1

c1ccc2c(c1)sc1ccccc12 [dibenzothiophene] + CCCCCCC
298.2 K
Details | mass density [kg/m3]
x1 = 0.0056 | 683.108
x1 = 0.0119 | 686.774
x1 = 0.0176 | 690.099
x1 = 0.0218 | 692.551

Cc1cccc2c1sc1c(C)cccc12 [4,6-dimethyldibenzo[b,d]thiophene] + CCCCCCCCCCCC
mass density [kg/m3]
Details | x1 = 0.0031 | x1 = 0.0053 | x1 = 0.0076
298.2 K | 746.102 | 746.82 | 747.546
313.2 K | 735.193 | 735.931 | 736.664

c1ccc2c(c1)sc1ccccc12 [dibenzothiophene] + CCCCCCCCCCCC
mass density [kg/m3]
Details | 298.2 K | 313.2 K
x1 = 0.0037 | – | 735.448
x1 = 0.0046 | – | 735.694
x1 = 0.0074 | 747.569 | 736.633
x1 = 0.0094 | 748.147 | –
x1 = 0.0098 | – | 737.333
x1 = 0.0142 | – | 738.752
x1 = 0.0187 | – | 740.177
x1 = 0.0191 | 751.276 | –
x1 = 0.024 | – | 741.874
x1 = 0.0285 | 754.322 | –
x1 = 0.0305 | – | 743.953
x1 = 0.0325 | – | 744.662
x1 = 0.0372 | – | 746.081
x1 = 0.0378 | 757.354 | –
x1 = 0.0651 | – | 755.317

c1ccc2c(c1)sc1ccccc12 [dibenzothiophene] + C1CCCCC1
298.2 K
Details | mass density [kg/m3]
x1 = 0.0025 | 775.392
x1 = 0.0045 | 776.667
x1 = 0.0114 | 780.726
x1 = 0.0224 | 787.439

c1ccc2c(c1)sc1ccccc12 [dibenzothiophene] + CCCCCC
298.2 K
Details | mass density [kg/m3]
x1 = 0.0097 | 661.714
x1 = 0.0147 | 665.156
x1 = 0.0174 | 667.026

c1ccc2c(c1)sc1ccccc12 [dibenzothiophene] + CCCCC
298.2 K
Details | mass density [kg/m3]
x1 = 0.0042 | 624.932
x1 = 0.0077 | 627.957
x1 = 0.0112 | 630.962
x1 = 0.0158 | 634.865

c1ccc2c(c1)sc1ccccc12 [dibenzothiophene] + CCCCCCCCCCC
mass density [kg/m3]
Details | x1 = 0.0035 | x1 = 0.0069 | x1 = 0.0087 | x1 = 0.0186 | x1 = 0.0263 | x1 = 0.0286 | x1 = 0.0342 | x1 = 0.0436
298.2 K | 738.065 | 739.235 | 739.863 | 743.359 | – | 746.909 | 748.935 | –
313.2 K | 726.939 | 728.106 | 728.741 | 732.22 | 735.021 | 735.767 | 737.778 | 741.11

c1ccc2c(c1)sc1ccccc12 [dibenzothiophene] + CCCCCCCCCC
mass density [kg/m3]
Details | x1 = 0.0034 | x1 = 0.0061 | x1 = 0.0082 | x1 = 0.0162 | x1 = 0.0259 | x1 = 0.0314
298.2 K | 727.461 | 728.541 | 729.331 | 732.459 | 736.262 | 738.412
313.2 K | 716.064 | 717.143 | 717.957 | 721.088 | 724.901 | 727.044
